Results as given in patent US12692249B2, “WDR5 inhibitors and modulators” (Vanderbilt University, priority 2019, dated 2026).
Read-outs that look alike come from different tables or passages of the source.

How the values were obtained:
[1] = biological target: WDR5 (Homo sapiens, UniProt P61964); test: TR-FRET competition binding assay, displacement of 10mer-Thr-FAM MLL peptide probe from His-tagged WDR5; settings: WDR5-His tag (residues 24-334) 2 nM; 10mer-Thr-FAM 150 nM; 60 min, room temperature; read-out: Ki for Inhibition of WDR5 by TR-FRET assay
[2] = tested on: MV4:11 human cancer cell lines; test: Cellular viability / anti-proliferative assay, CellTiter-Glo, 5 day protocol; format: cell-based; settings: Homo sapiens, MV4-11, 120 h, read-out: GI50 on cellular proliferation of MV4:11 human cancer cell lines
How it was run: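 Luminescent ATP-based viability (CellTiter-Glo) after a 5-day exposure gave GI50 via sigmoidal fitting, averaged over two or more replicates. Compounds spanned 22 two-fold steps down from 30 μM at 0.3% DMSO, on 200 MV-4-11 cells per well grown in IMDM plus 10% FBS.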

[3] = MV4:11 cells, 5 day incubation, CellTiter-Glo, mean of at least two replicates

SMILES: CCc1cnc2cncc(N3CCc4c(cc(Cn5ccnc5)cc4-c4cn(C)nc4C(F)(F)F)C3=O)c2c1 [Example 211, 7-((1H-imidazol-1-yl)methyl)-2-(3-ethyl-1,7-naphthyridin-5-yl)-5-(1-methyl-3-(trifluoromethyl)-1H-pyrazol-4-yl)-3,4-dihydroisoquinolin-1(2H)-one]
- Ki [1]: < 0.02 nM
- GI50 [2, 3]: 20 nM

SMILES: Cc1nccn1Cc1cc2c(c(-c3cn(C)nc3C(F)(F)F)c1)CCN(C1CCCc3ncccc31)C2=O (stereo not shown) [Example 64, 7-((2-Methyl-1H-imidazol-1-yl)methyl)-5-(1-methyl-3-(trifluoromethyl)-1H-pyrazol-4-yl)-2-(5,6,7,8-tetrahydroquinolin-5-yl)-3,4-dihydroisoquinolin-1(2H)-one]
- Ki [1]: 0.042 nM
- GI50 [2, 3]: 284 nM

SMILES: CCc1cc(CN(C)C(C)=O)c2nccc(N3CCc4c(cc(Cn5ccnc5)cc4-c4cn(C)nc4C(F)(F)F)C3=O)c2c1 [Example 238]
- Ki [1]: < 0.02 nM
- GI50 [2, 3]: 30 nM

SMILES: CCc1cc(N2C[C@H]3CN(C)C[C@H]3C2)c2nc(C)cc(N3CCc4c(cc(Cn5ccnc5)cc4-c4cn(C)nc4C(F)(F)F)C3=O)c2c1 [Example 197, 7-((1H-Imidazol-1-yl)methyl)-2-(6-ethyl-2-methyl-8-((3aR,6aS)-5-methylhexahydropyrrolo[3,4-c]pyrrol-2(1H)-yl)quinolin-4-yl)-5-(1-methyl-3-(trifluoromethyl)-1H-pyrazol-4-yl)-3,4-dihydroisoquinolin-1(2H)-one]
- Ki [1]: 0.02 nM
- GI50 [2, 3]: < 20 nM

SMILES: COc1ccc2c(Cl)ncc(N3CCc4c(cc(Cn5ccnc5)cc4-c4cn(C)nc4C(F)(F)F)C3=O)c2c1 [Example 21, 7-((1H-Imidazol-1-yl)methyl)-1′-chloro-6′-methoxy-5-(1-methyl-3-(trifluoromethyl)-1H-pyrazol-4-yl)-3,4-dihydro-1H-[2,4′-biisoquinolin]-1-one]
- Ki [1]: < 0.02 nM
- GI50 [2, 3]: 23 nM

SMILES: COc1cc(CN2CCN(C3CCOCC3)CC2)c2nccc(N3CCc4c(cc(Cn5ccnc5)cc4-c4cn(C)nc4C(F)(F)F)C3=O)c2c1 [Example 143, 7-((1H-Imidazol-1-yl)methyl)-2-(6-methoxy-8-((4-(tetrahydro-2H-pyran-4-yl)piperazin-1-yl)methyl)quinolin-4-yl)-5-(1-methyl-3-(trifluoromethyl)-1H-pyrazol-4-yl)-3,4-dihydroisoquinolin-1(2H)-one]
- Ki [1]: 0.038 nM
- GI50 [2, 3]: < 20 nM

SMILES: CCc1ccc2c(N3CCc4c(cc(Cn5ccnc5)cc4-c4cn(C)nc4C(F)(F)F)C3=O)cccc2n1 [Example 107]
- Ki [1]: 0.021 nM
- GI50 [2, 3]: 452 nM

SMILES: COc1cnc2c(C)ccc(N3CCc4c(cc(Cn5ccnc5)cc4-c4cn(C)nc4C(F)(F)F)C3=O)c2c1 [Example 206, 7-((1H-Imidazol-1-yl)methyl)-2-(3-methoxy-8-methylquinolin-5-yl)-5-(1-methyl-3-(trifluoromethyl)-1H-pyrazol-4-yl)-3,4-dihydroisoquinolin-1(2H)-one]
- Ki [1]: 0.022 nM
- GI50 [2, 3]: 43 nM

SMILES: CCn1cc(-c2cc(Cn3ccnc3C)cc3c2CCN([C@H]2CCOc4ccc(OC)cc42)C3=O)c(C(F)(F)F)n1 [Example 74, (S)-5-(1-Ethyl-3-(trifluoromethyl)-1H-pyrazol-4-yl)-2-(6-methoxychroman-4-yl)-7-((2-methyl-1H-imidazol-1-yl)methyl)-3,4-dihydroisoquinolin-1(2H)-one]
- Ki [1]: < 0.02 nM
- GI50 [2]: 20 nM

SMILES: COc1cc2c(N3CCc4c(cc(Cn5ccnc5)cc4-c4cn(C)nc4C(F)(F)F)C3=O)cc(C)cc2nc1C [Example 155, 7-((1H-Imidazol-1-yl)methyl)-2-(3-methoxy-2,7-dimethylquinolin-5-yl)-5-(1-methyl-3-(trifluoromethyl)-1H-pyrazol-4-yl)-3,4-dihydroisoquinolin-1(2H)-one]
- Ki [1]: 0.029 nM
- GI50 [2, 3]: < 20 nM

SMILES: CCc1cc(N(C)CCN(C)C)c2nccc(N3CCc4c(cc(Cn5ccnc5)cc4-c4cn(C)nc4C(F)(F)F)C3=O)c2c1 [Example 38, 7-((1H-Imidazol-1-yl)methyl)-2-(8-((2-(dimethylamino)ethyl)(methyl)amino)-6-ethylquinolin-4-yl)-5-(1-methyl-3-(trifluoromethyl)-1H-pyrazol-4-yl)-3,4-dihydroisoquinolin-1(2H)-one]
- Ki [1]: < 0.02 nM
- GI50 [2, 3]: 31 nM

SMILES: CCOC(=O)c1cc(OC)cc2c(N3CCc4c(cc(Cn5ccnc5)cc4-c4cn(C)nc4C(F)(F)F)C3=O)cc(C)nc12 [Example 95, Ethyl 4-(7-((1H-imidazol-1-yl)methyl)-5-(1-methyl-3-(trifluoromethyl)-1H-pyrazol-4-yl)-1-oxo-3,4-dihydroisoquinolin-2(1H)-yl)-6-methoxy-2-methylquinoline-8-carboxylate]
- Ki [1]: < 0.02 nM
- GI50 [2, 3]: 23 nM

SMILES: CCn1cc(-c2cc(Cn3ccnc3)cc3c2CCN(c2cc(C)nc4ccc(OC)cc24)C3=O)c(C(F)(F)F)n1 [Example 53, 7-((1H-Imidazol-1-yl)methyl)-5-(1-ethyl-3-(trifluoromethyl)-1H-pyrazol-4-yl)-2-(6-methoxy-2-methylquinolin-4-yl)-3,4-dihydroisoquinolin-1(2H)-one]
- Ki [1]: < 0.02 nM
- GI50 [2, 3]: 59 nM

SMILES: CCc1cc(N(C)C)c2nccc(N3CCc4c(cc(Cn5ccnc5)cc4-c4cn(C)nc4C(F)(F)F)C3=O)c2c1 [Example 35, 7-((1H-Imidazol-1-yl)methyl)-2-(8-(dimethylamino)-6-ethylquinolin-4-yl)-5-(1-methyl-3-(trifluoromethyl)-1H-pyrazol-4-yl)-3,4-dihydroisoquinolin-1(2H)-one]
- Ki [1]: < 0.02 nM
- GI50 [2, 3]: 76 nM

SMILES: CCn1cc(-c2cc(Cn3ccnc3C)cc3c2CCN(c2cccc4ncc(OC)cc24)C3=O)c(C(F)(F)F)n1 [Example 50, 5-(1-Ethyl-3-(trifluoromethyl)-1H-pyrazol-4-yl)-2-(3-methoxyquinolin-5-yl)-7-((2-methyl-1H-imidazol-1-yl)methyl)-3,4-dihydroisoquinolin-1(2H)-one]
- Ki [1]: < 0.02 nM
- GI50 [2, 3]: 22 nM

SMILES: COc1cc(C(=O)NS(C)(=O)=O)c2nc(C)cc(N3CCc4c(cc(Cn5ccnc5)cc4-c4cn(C)nc4C(F)(F)F)C3=O)c2c1 [Example 181, 4-(7-((1H-Imidazol-1-yl)methyl)-5-(1-methyl-3-(trifluoromethyl)-1H-pyrazol-4-yl)-1-oxo-3,4-dihydroisoquinolin-2(1H)-yl)-6-methoxy-2-methyl-N-(methylsulfonyl)quinoline-8-carboxamide]
- Ki [1]: 0.04 nM
- GI50 [2, 3]: 856 nM

SMILES: CCc1cc(C(=O)NC2CC2)c2nccc(N3CCc4c(cc(Cn5ccnc5)cc4-c4cn(C)nc4C(F)(F)F)C3=O)c2c1 [Example 172, 4-(7-((1H-Imidazol-1-yl)methyl)-5-(1-methyl-3-(trifluoromethyl)-1H-pyrazol-4-yl)-1-oxo-3,4-dihydroisoquinolin-2(1H)-yl)-N-cyclopropyl-6-ethylquinoline-8-carboxamide]
- Ki [1]: < 0.02 nM
- GI50 [2, 3]: < 20 nM

SMILES: CCc1cc(OC(F)(F)F)c2nccc(N3CCc4c(cc(Cn5ccnc5)cc4-c4cn(C)nc4C(F)(F)F)C3=O)c2c1 [Example 176, 7-((1H-imidazol-1-yl)methyl)-2-(6-ethyl-8-(trifluoromethoxy)quinolin-4-yl)-5-(1-methyl-3-(trifluoromethyl)-1H-pyrazol-4-yl)-3,4-dihydroisoquinolin-1(2H)-one]
- Ki [1]: < 0.02 nM
- GI50 [2, 3]: 33 nM

SMILES: Cc1cc2c(N3CCc4c(cc(Cn5ccnc5)cc4-c4cn(C)nc4C(F)(F)F)C3=O)ccnc2n1C [Example 28, 7-((1H-Imidazol-1-yl)methyl)-2-(1,2-dimethyl-1H-pyrrolo[2,3-b]pyridin-4-yl)-5-(1-methyl-3-(trifluoromethyl)-1H-pyrazol-4-yl)-3,4-dihydroisoquinolin-1(2H)-one]
- Ki [1]: 0.032 nM
- GI50 [2, 3]: 281 nM

SMILES: COc1cnc2cccc(N3CCc4c(cc(Cn5ccnc5)cc4-c4cn(C)nc4C(F)(F)F)C3=O)c2c1 [Example 12, 7-((1H-Imidazol-1-yl)methyl)-2-(3-methoxyquinolin-5-yl)-5-(1-methyl-3-(trifluoromethyl)-1H-pyrazol-4-yl)-3,4-dihydroisoquinolin-1(2H)-one]
- Ki [1]: < 0.02 nM
- GI50 [2, 3]: 34 nM

SMILES: CN1CC[C@H](N2CCc3c(cc(Cn4ccnc4)cc3-c3cn(C)nc3C(F)(F)F)C2=O)c2cc(Cl)cnc21 [Example 73, (S)-7-((1H-Imidazol-1-yl)methyl)-2-(6-chloro-1-methyl-1,2,3,4-tetrahydro-1,8-naphthyridin-4-yl)-5-(1-methyl-3-(trifluoromethyl)-1H-pyrazol-4-yl)-3,4-dihydroisoquinolin-1(2H)-one]
- Ki [1]: < 0.02 nM
- GI50 [2]: < 20 nM

SMILES: CNC(=O)c1cc(N2CCc3c(cc(Cn4ccnc4)cc3-c3cn(C)nc3C(F)(F)F)C2=O)c2cc(OC)ccc2n1 [Example 237, 4-(7-((1H-Imidazol-1-yl)methyl)-5-(1-methyl-3-(trifluoromethyl)-1H-pyrazol-4-yl)-1-oxo-3,4-dihydroisoquinolin-2(1H)-yl)-6-methoxy-N-methylquinoline-2-carboxamide]
- Ki [1]: < 0.02 nM
- GI50 [2, 3]: 51 nM

SMILES: COc1cc(CN2CCN(C(C)=O)CC2)c2nccc(N3CCc4c(cc(Cn5ccnc5)cc4-c4cn(C)nc4C(F)(F)F)C3=O)c2c1 [Example 127, 7-((1H-Imidazol-1-yl)methyl)-2-(8-((4-acetylpiperazin-1-yl)methyl)-6-methoxyquinolin-4-yl)-5-(1-methyl-3-(trifluoromethyl)-1H-pyrazol-4-yl)-3,4-dihydroisoquinolin-1(2H)-one]
- Ki [1]: 0.021 nM
- GI50 [2, 3]: < 20 nM
